# Experimental data reported in patent US10464952B2, “Beta-lactamase inhibitors” (priority 2015, dated 2019).
# What was measured:
# [1] = molecular target: T1, SHV-5 (Klebsiella pneumoniae, UniProt P0A3M1); test: β-lactamase enzyme inhibition assay, SHV-5 (cefotaxime substrate); assay type: biochemical
# T1 construct: made in house; host or cells: E. coli BL21(DE3)
# Method: (§1) For SHV-5, KPC-2, p99AmpC and OXA-4813-lactamases, E. coli BL21(DE3) bacterial cells carrying expression plasmids (expressed as native untagged proteins) for the individual β-lactamases were grown in 1L of Superbroth (Teknova Inc. Hollister, Calif.) supplemented with 100 μg/ml kanamycin selection and 1×5052 (0.5% glycerol, 0.05% glucose and 0.2% α-lactose) at 35° C. for 18-20 hours. Cells were harvested by centrifugation (4,000 ×g, 4° C., 20 min), re-suspended in 50 ml of 10 mM HEPES pH 7.5 (1/20 of the initial volume). The cells were lysed by sonication (5 pulses of 45 seconds) at 45 Won ice. The lysates were clarified by centrifugation at 10,000 ×g for 40 minutes at 4° C. Samples were diluted 5-fold in 50 mM sodium acetate pH 5.0, stored overnight at 4° C., after which they were centrifuged at 10,000 ×g for 30 minutes to clarify, and filtered through 0.45 μm filters. The samples were loaded onto a 5 ml Capto S sepharose cation exchange column (GE Healthcare) pre-equilibrated with 50 mM sodium acetate pH 5.0. The column was washed with 5 column volumes of 50 mM sodium acetate pH 5.0 to wash out unbound protein and a linear gradient of NaCl (0 to 500 mM) was used to elute the protein (over 16 CV) from the column. Fractions were assayed for β-lactamase activity using Centa (Calbiochem, Gibbstown, N.J.) or Nitrocefin (EMD Millipore chemicals, Darmstadt, Germany) as a reporter β-lactamase substrate for activity in the isolated fractions. Active fractions were pooled, concentrated and further purified by gel filtration chromatography on a Superdex 75 prep grade gel filtration column (GE Healthcare, Piscataway, N.J.) pre -equilibrated in 50 mM Hepes pH 7.5, 150 mM NaCl. Active fractions were pooled, concentrated, and quantitated by BCA protein determination (ThermoScientific, Rockford, Ill.), dialyzed into PBS and frozen at […] in 20% glycerol until use.
# (§2) An equal volume of diluted enzyme stock was added, and the plates were incubated at 37° C. for 15 min. Nitrocefin was used as substrate for p99 AmpC, VIM-2 and OXA-48 and dispensed into each well at a final concentration of 100 μM. Absorbance at 486 nm was immediately monitored for 10 min using a Biotek Powerwave XS2 microplate spectrophotometer using the GEN5 software package (Biotek Instruments, Winooski Vt.). In an analogous fashion, imipenem was used as substrate for KPC-2 and Cefotaxime was used for SHV-5, while changes in absorbance upon hydrolysis of the β-lactam ring were monitored at 300 nm and 260 nm respectively in UV-transparent 96-well microtiter assay plates. Maximum rates of hydrolysis were compared to those in control wells (without inhibitors), and percentages of enzyme inhibition were calculated for each concentration of inhibitor. The concentration of inhibitor needed to reduce the initial rate of hydrolysis of substrate by 50% (IC50) was calculated as the residual activity of β-lactamase at 486 nm using GraFit version 7 kinetics software package (Erithacus Software, Surrey, UK).
# (§3) Using the methodology described above, examples of the current invention were evaluated for their ability to inhibit β-lactamase enzymes from all four Ambler classifications (A through D). […] NT=Not tested.
# [2] = molecular target: T2, p99 AmpC (Enterobacter cloacae, UniProt P05364); test: β-lactamase enzyme inhibition assay, p99 AmpC (nitrocefin substrate); assay type: biochemical
# T2 construct: made in house; host or cells: E. coli BL21(DE3)
# T2 sequence (P05364 21-381): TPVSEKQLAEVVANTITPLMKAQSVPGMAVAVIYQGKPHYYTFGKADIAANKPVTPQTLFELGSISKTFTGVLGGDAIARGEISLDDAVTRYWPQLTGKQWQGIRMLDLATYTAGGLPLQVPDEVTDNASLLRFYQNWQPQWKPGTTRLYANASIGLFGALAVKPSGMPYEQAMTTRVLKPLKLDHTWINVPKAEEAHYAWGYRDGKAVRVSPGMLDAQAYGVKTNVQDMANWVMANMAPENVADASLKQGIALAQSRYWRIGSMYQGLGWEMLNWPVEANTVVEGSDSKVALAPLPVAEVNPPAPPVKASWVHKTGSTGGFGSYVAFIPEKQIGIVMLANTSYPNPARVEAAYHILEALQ
# Method: as §1, §2, §3
# [3] = molecular target: T3, VIM-2 metallo β-lactamase (Pseudomonas aeruginosa, UniProt Q9K2N0); test: β-lactamase enzyme inhibition assay, VIM-2 (nitrocefin substrate); assay type: biochemical; conditions: 15 min preincubation at 37° C.; nitrocefin 100 μM, 486 nm; read-out: IC50 VIM-2 (Class B)
# T3 construct: made in house; host or cells: E. coli BL21(DE3)
# Method: For VIM-2 metallo β-lactamase, the procedure was identical with the following exceptions, first the protein was not pH adjusted to pH 5 with 50 mM sodium acetate. Second, the chromatography step was changed to a 5 ml Q sepharose anion exchange column pre-equilibrated with 50 mM Hepes pH 7.5, and elution of the protein was achieved by a linear gradient of NaCl (0-600 mM). Finally, the VIM-2 purification required a second run (3rd step) on the Q sepharose anion exchange column to achieve acceptable purity (>90%).
# as §2, §3
# [4] = tested on: E. coli expressing the Class A Extended Spectrum Beta-Lactamase (ESBL) CTX-M-15; test: Broth microdilution MIC assay, potentiation of ceftazidime; assay type: cell-based; conditions: Fixed CAZ 4 μg/mL; CAMHB, 16-20 hours at 37° C.
# Description: (§4) To determine the ability of test compounds to potentiate the inhibition of the growth of bacterial strains that produce beta-lactamase enzymes, classic cell based broth microdilution MIC assays were employed. Six bacteria strains producing beta-lactamase enzymes were used: E. coli expressing the Class A Extended Spectrum Beta-Lactamase (ESBL) CTX-M-15, E. cloacae expressing the Class C P99, K. pneumoniae expressing the Class A carbapenemase KPC-3, P.aeruginosa expressing the Class B carbapenemase VIM-2, K. pneumoniae expressing the class A carbapenemase KPC-2 and the class B carbapenemase VIM-4, and K. pneumoniae producing the Class D carbapenemase OXA-48. The assay was conducted in Cation Adjusted Mueller Hinton Broth (CAMHB, BD #212322, BD Diagnostic Systems, Sparks, Md.). Bacteria strains were grown for 3-5 hours in CAMHB broth. Test compounds were added to a microtiter plate in 2-fold serial dilutions in CAMHB in a final concentration range of 32 μg/mL to 0.015 μg/mL. An overlay of CAMHB containing a Beta-lactam was added to the compounds at a final static concentration of 4 μg/mL. […] In addition to the titration of test compounds the MICs of a panel of control beta-lactams is also tested to ensure the strains are behaving consistently from test to test. Once the test compound and antibiotics are added the plates can be inoculated according to CLSI broth microdilution method. After inoculation, the plates are incubated for 16-20 hours at 37° C., then the Minimal Inhibitory Concentration (MIC) of the test compound is determined visually.
# (§5) Using the methodology described above, examples of the current invention were evaluated for their ability to inhibit the growth of β-lactamase-producing bacteria in the presence of a β-lactam antibiotic.
# (§6) Representative results are shown in Table 3 where A represents an MIC of the fixed β-lactam antibiotic in the presence of >32 μg/mL of a β-lactamase inhibitor of exemplary compounds, B represents the MIC in the presence of between 8 and 32 μg/mL of a β-lactamase inhibitor of exemplary compounds, and C represents the MIC in the presence of ≤4 μg/mL of a β-lactamase inhibitor of exemplary compounds. NT=Not Tested.
# [5] = tested on: E. cloacae expressing the Class C P99; test: as above; assay type: cell-based; conditions: Fixed CAZ 4 μg/mL; CAMHB, 16-20 hours at 37° C.
# Description: as §4, §5, §6
# [6] = molecular target: T4, OXA-48 (Klebsiella pneumoniae, UniProt Q6XEC0); test: β-lactamase enzyme inhibition assay, OXA-48 (nitrocefin substrate); assay type: biochemical
# T4 construct: made in house; host or cells: E. coli BL21(DE3)
# T4 sequence (Q6XEC0 23-265 limits assumed): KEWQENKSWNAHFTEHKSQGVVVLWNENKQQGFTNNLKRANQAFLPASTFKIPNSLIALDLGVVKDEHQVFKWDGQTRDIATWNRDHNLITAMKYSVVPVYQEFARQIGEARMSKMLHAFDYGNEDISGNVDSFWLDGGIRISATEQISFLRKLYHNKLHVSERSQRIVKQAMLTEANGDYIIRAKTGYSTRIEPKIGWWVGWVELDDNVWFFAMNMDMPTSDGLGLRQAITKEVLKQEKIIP
# Method: as §1, §2, §3
# [7] = molecular target: T5, KPC-2 (Klebsiella pneumoniae, UniProt Q9F663); test: β-lactamase enzyme inhibition assay, KPC-2 (imipenem substrate); assay type: biochemical
# T5 construct: made in house; host or cells: E. coli BL21(DE3)
# T5 sequence (Q9F663 25-293 limits assumed): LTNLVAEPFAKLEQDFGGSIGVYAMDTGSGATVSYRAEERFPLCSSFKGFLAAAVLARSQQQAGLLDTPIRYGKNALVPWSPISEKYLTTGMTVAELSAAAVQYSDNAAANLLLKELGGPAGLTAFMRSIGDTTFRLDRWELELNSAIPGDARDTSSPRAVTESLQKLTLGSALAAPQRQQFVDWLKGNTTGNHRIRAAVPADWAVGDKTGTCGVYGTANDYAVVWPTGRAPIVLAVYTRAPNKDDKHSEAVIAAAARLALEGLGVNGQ
# Method: as §1, §2, §3
# [8] = tested on: K. pneumoniae expressing the Class A carbapenemase KPC-3; test: Broth microdilution MIC assay, potentiation of meropenem; assay type: cell-based; conditions: Fixed Mero 4 μg/mL; CAMHB, 16-20 hours at 37° C.
# Description: as §4, §5
# [9] = tested on: K. pneumoniae producing the Class D carbapenemase OXA-48; test: as above; assay type: cell-based; conditions: Fixed Mero 4 μg/mL; CAMHB, 16-20 hours at 37° C.
# Description: as §4, §5
# [10] = tested on: P.aeruginosa expressing the Class B carbapenemase VIM-2; test: as above; assay type: cell-based; conditions: Fixed Mero 4 μg/mL; CAMHB, 16-20 hours at 37° C.
# Description: as §4, §5, §6
# [11] = tested on: K. pneumoniae expressing the class A carbapenemase KPC-2 and the class B carbapenemase VIM-4; test: as above; assay type: cell-based; conditions: Fixed Mero 4 μg/mL; CAMHB, 16-20 hours at 37° C.
# Description: as §4, §5, §6
# T1 sequence (P0A3M1 22-286): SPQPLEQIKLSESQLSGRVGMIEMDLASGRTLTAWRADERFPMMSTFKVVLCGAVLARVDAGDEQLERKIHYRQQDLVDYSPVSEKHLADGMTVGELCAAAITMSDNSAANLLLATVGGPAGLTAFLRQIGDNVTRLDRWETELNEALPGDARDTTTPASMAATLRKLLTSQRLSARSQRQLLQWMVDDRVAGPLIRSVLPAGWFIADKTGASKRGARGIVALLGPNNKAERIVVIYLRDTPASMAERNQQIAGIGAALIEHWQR
structure (smiles),measurement,setting,value
"CC(F)(F)CCC(=O)N[C@H]1Cc2cccc(C(=O)O)c2OB1O [Example 85, (R)-3-(4,4-Difluoro-pentanoylamino)-2-hydroxy-3,4-dihydro-2H -benzo[e][1,2]oxaborinine-8-carboxylic acid]",IC50,[1],< 0.1 µM
same,IC50,[2],< 0.1 µM
same,IC50,[3],1 to 10 µM
same,"MIC (μg/mL) of exemplary compounds in presence of fixed β-lactams, E. coli ESBL4 CTX-M-15",[4],C (C represents the MIC in the presence of ≤4 μg/mL of a β-lactamase inhibitor)
same,"MIC (μg/mL) of exemplary compounds in presence of fixed β-lactams, E. cl. 144200 p99 AmpC",[5],C (C represents the MIC in the presence of ≤4 μg/mL of a β-lactamase inhibitor)
same,IC50,[6],1 to 10 µM
same,IC50,[7],< 0.1 µM
same,"MIC (μg/mL) of exemplary compounds in presence of fixed β-lactams, K. P. 156319 KPC-3",[8],C (C represents the MIC in the presence of ≤4 μg/mL of a β-lactamase inhibitor)
same,"MIC (μg/mL) of exemplary compounds in presence of fixed β-lactams, K. P. 11978 OXA-48",[9],C (C represents the MIC in the presence of ≤4 μg/mL of a β-lactamase inhibitor)
same,"MIC (μg/mL) of exemplary compounds in presence of fixed β-lactams, P. aerug. 2775 VIM-2",[10],C (C represents the MIC in the presence of ≤4 μg/mL of a β-lactamase inhibitor)
same,"MIC (μg/mL) of exemplary compounds in presence of fixed β-lactams, K.P. A-1797 KPC-2 VIM-4",[11],B (B represents the MIC in the presence of between 8 and 32 μg/mL of a β-lactamase inhibitor)
